Measured values taken from patent US20230141965A1, “TREATMENT OF INFECTIOUS DISEASES” (Durect Corporation, priority 2020, published 2023).

Assays:
C57BL/6J mice = assay: Acute organ injury in mice challenged with lipopolysaccharide (LPS); assay type: in vivo; conditions: for health of kidney, lung, and liver tissues (sections stained with hematoxylin and eosin, light microscope): C57BL/6J mice, 50 mg/kg i.p. two hours before i.v. LPS 5 mg/kg, tissues collected at day 3, FIG. 1
Method: C57BL/6J mice, 21 week old, received an i.p. injection of 25HC3S sodium salt (50 mg/kg) or vehicle. Two hours later, mice were challenged with an intravenous injection of lipopolysaccharide (LPS) at 5 mg/kg. For vehicle-treated mice, the tissues, liver, lung, and kidney, were collected right before when animals met all criteria to be sacrificed. For mice treated with 25HC3S sodium salt, tissues were collected at the day 3, when 80% of vehicle-treated mice died. The tissue sections were stained with hematoxylin and eosin, examined under light microscope with magnification x 100.

mice = assay: Acute organ injury in mice given acetaminophen (APAP) injection; assay type: in vivo; conditions: for kidney, lung, and liver tissues: mice, 25 mg/kg with APAP injection (600 mg/kg APAP for 24hr), FIG. 2
Method: Normal: normal mice without treatment; Control: mice with 10% glucose and acetaminophen (APAP) injection (600 mg/kg APAP for 24hr); PG: mice with vehicle and APAP injection (600 mg/kg APAP for 24hr); PG+25HC3S: mice with 25HC3S (25 mg/kg) and APAP injection.

SMILES | health of kidney, lung, and liver tissues (sections stained with hematoxylin and eosin, light microscope) (C57BL/6J mice) | kidney, lung, and liver tissues (mice) | health of kidney, lung, and liver tissues (sections stained with hematoxylin and eosin, light microscope) (C57BL/6J mice; listed as 25HCS) | protection of mice from lipopolysaccharide (LPS) (C57BL/6J mice; FIG. 1 legend, LPS 5 mg/kg i.v.) | protection of mice from acetaminophen (mice; FIG. 2 legend, 600 mg/kg APAP)
C[C@H](CCCC(C)(C)O)[C@H]1CC[C@H]2[C@@H]3CC=C4CC(OS(=O)(=O)[O-])CC[C@]4(C)[C@H]3CC[C@]12C.[Na+] (stereo partly drawn) [25HC3S sodium salt, 5-cholesten-3, 25-diol, 3-sulfate] | improved the health of kidney, lung, and liver tissues | improved kidney, lung, and liver tissues |  |  | 
C[C@H](CCCC(C)(C)O)[C@H]1CC[C@H]2[C@@H]3CC=C4C[C@@H](OS(=O)(=O)[O-])CC[C@]4(C)[C@H]3CC[C@]12C.[Na+] [25HC3S, 5-cholesten-3, 25-diol, 3-sulfate] |  | improved kidney, lung, and liver tissues | improved kidney, lung, and liver tissues | protected mice from lipopolysaccharide (LPS) | protected mice from acetaminophen
